Assays:
Type in all cases: in vivo
[1] = test system: Euschistus heros (Neotropical Brown Stink Bug); experiment: Euschistus heros, soybean leaves on agar, N2 nymphs; conditions: 120 h, application rate of 200 ppm, 5 days after infestation, read-out: effect in at least one of the two categories (mortality or growth inhibition)
Experimental: Example B3: Euschistus heros (Neotropical Brown Stink Bug)
Soybean leaves on agar in 24-well microtiter plates were sprayed with aqueous test solutions prepared from 10′000 ppm DMSO stock solutions. After drying the leaves were infested with N2 nymphs. The samples were assessed for mortality and growth inhibition in comparison to untreated samples 5 days after infestation.

[2] = test system: Plutella xylostella (Diamond Back Moth); experiment: Plutella xylostella, artificial diet, L2 larvae; conditions: 120 h, application rate of 200 ppm, 5 days after infestation, read-out: effect in at least one of the two categories (mortality or growth inhibition)
Experimental: Example B7: Plutella xylostella (Diamond Back Moth)
24-well microtiter plates with artificial diet were treated with aqueous test solutions prepared from 10′000 ppm DMSO stock solutions by pipetting. After drying, the plates were infested with L2 larvae (10 to 15 per well). The samples were assessed for mortality and growth inhibition in comparison to untreated samples 5 days after infestation.

[3] = test system: Spodoptera littoralis (Egyptian Cotton Leaf Worm); experiment: Spodoptera littoralis, cotton leaf discs, L1 larvae; conditions: foliar, 72 h, application rate of 200 ppm, 3 days after infestation
Experimental: Example B8: Spodoptera littoralis (Egyptian Cotton Leaf Worm)
Cotton leaf discs were placed onto agar in 24-well microtiter plates and sprayed with aqueous test solutions prepared from 10′000 ppm DMSO stock solutions. After drying the leaf discs were infested with five L1 larvae. The samples were assessed for mortality, anti-feeding effect, and growth inhibition in comparison to untreated samples 3 days after infestation. Control of Spodoptera littoralis by a test sample is given when at least one of the categories mortality, anti-feedant effect, and growth inhibition is higher than the untreated sample.

[4] = test system: Tetranychus urticae (Two-Spotted Spider Mite); experiment: Tetranychus urticae feeding/contact activity, bean leaf discs; conditions: foliar, 192 h
Experimental: Example B10: Tetranychus urticae (Two-Spotted Spider Mite): Feeding/Contact Activity
Bean leaf discs on agar in 24-well microtiter plates were sprayed with aqueous test solutions prepared from 10′000 ppm DMSO stock solutions. After drying the leaf discs were infested with a mite population of mixed ages. The samples were assessed for mortality on mixed population (mobile stages) 8 days after infestation.

[5] = test system: Bemisia tabaci (Cotton White Fly); experiment: Bemisia tabaci feeding/contact activity, cotton leaf discs; conditions: foliar, 144 h, application rate of 200 ppm, 6 days after incubation, adult white flies
Experimental: Example B1: Bemisia tabaci (Cotton White Fly): Feeding/Contact Activity
Cotton leaf discs were placed on agar in 24-well microtiter plates and sprayed with aqueous test solutions prepared from 10′000 ppm DMSO stock solutions. After drying the leaf discs were infested with adult white flies. The samples were checked for mortality 6 days after incubation.

[6] = test system: Diabrotica balteata (Corn Root Worm); experiment: Diabrotica balteata, maize sprouts on agar, L2 larvae; conditions: 96 h, application rate of 200 ppm, 4 days after infestation, read-out: effect in at least one of the two categories (mortality or growth inhibition)
Experimental: Example B2: Diabrotica balteata (Corn Root Worm)
Maize sprouts placed onto an agar layer in 24-well microtiter plates were treated with aqueous test solutions prepared from 10′000 ppm DMSO stock solutions by spraying. After drying, the plates were infested with L2 larvae (6 to 10 per well). The samples were assessed for mortality and growth inhibition in comparison to untreated samples 4 days after infestation.

[7] = test system: Thrips tabaci (Onion Thrips); experiment: Thrips tabaci feeding/contact activity, sunflower leaf discs; conditions: foliar, 144 h, application rate of 200 ppm, 6 days after infestation
Experimental: Example B11: Thrips tabaci (Onion Thrips) Feeding/Contact Activity
Sunflower leaf discs were placed on agar in 24-well microtiter plates and sprayed with aqueous test solutions prepared from 10′000 ppm DMSO stock solutions. After drying the leaf discs were infested with a thrips population of mixed ages. The samples were assessed for mortality 6 days after infestation.

[8] = test system: Myzus persicae (Green Peach Aphid); experiment: Myzus persicae feeding/contact activity, sunflower leaf discs; conditions: foliar, 144 h, application rate of 200 ppm, 6 days after infestation
Experimental: Example B5: Myzus persicae (Green Peach Aphid): Feeding/Contact Activity
Sunflower leaf discs were placed onto agar in a 24-well microtiter plate and sprayed with aqueous test solutions prepared from 10′000 ppm DMSO stock solutions. After drying, the leaf discs were infested with an aphid population of mixed ages. The samples were assessed for mortality 6 days after infestation.

[9] = test system: Myzus persicae (Green Peach Aphid); experiment: Myzus persicae systemic activity, pea seedling roots in test solution; conditions: 144 h, test rate of 24 ppm, 6 days after placing seedlings into test solutions
Experimental: Example B6: Myzus persicae (Green Peach Aphid): Systemic Activity
Roots of pea seedlings infested with an aphid population of mixed ages were placed directly into aqueous test solutions prepared from 10′000 DMSO stock solutions. The samples were assessed for mortality 6 days after placing seedlings into test solutions.

[10] = test system: Spodoptera littoralis (Egyptian Cotton Leaf Worm); experiment: Spodoptera littoralis, uptake by lettuce roots from agar, eggs; conditions: 144 h, test rate of 12.5 ppm, 6 days after infestation, read-out: effect in at least one of the three categories (mortality, anti-feeding, or growth inhibition)
From the text: Example B9: Spodoptera littoralis (Egyptian Cotton Leaf Worm)
Test compounds were applied by pipette from 10′000 ppm DMSO stock solutions into 24-well plates and mixed with agar. Lettuce seeds were placed onto the agar and the multi well plate was closed by another plate which contained also agar. After 7 days the compound was absorbed by the roots and the lettuce grew into the lid plate. The lettuce leaves were then cut off into the lid plate. Spodoptera eggs were pipetted through a plastic stencil onto a humid gel blotting paper and the lid plate was closed with it. The samples were assessed for mortality, anti-feedant effect and growth inhibition in comparison to untreated samples 6 days after infestation.

CCS(=O)(=O)c1ccc(-n2cncn2)nc1-c1nc2cc(C(F)(F)F)n(C3CC3)c(=O)c2n1C [Compound P4, 5-cyclopropyl-2-[3-ethylsulfonyl-6-(1,2,4-triazol-1-yl)-2-pyridyl]-3-methyl-6-(trifluoromethyl)imidazo[4,5-c]pyridin-4-one]
≥ 80%: percent effect (mortality or growth inhibition) at 200 ppm [1] | percent effect (mortality or growth inhibition) at 200 ppm [2] | percent control (mortality, anti-feedant effect or growth inhibition) at 200 ppm [3] | mortality at 200 ppm [4] | mortality at 200 ppm [5] | percent effect (mortality or growth inhibition) at 200 ppm [6] | mortality at 200 ppm [7] | mortality at 200 ppm [8] | mortality at 24 ppm [9] | percent effect (mortality, anti-feeding or growth inhibition) at 12.5 ppm [10]
